Laboratory results taken from the supplement of paper PMC10307832.

Columns and labels:
Experiment in all cases: relative viability (nuclei count vs DMSO), 5 days (fraction); higher = more cells survive
[1] = compound: O[C@H]1CC[C@H](Nc2ncc3nc(Nc4c(F)cc(F)cc4F)n([C@H]4CCOC4)c3n2)CC1 [Tanzisertib] + C[C@@H](Oc1cc(-c2cnn(C3CCNCC3)c2)cnc1N)c1c(Cl)ccc(F)c1Cl [Crizotinib] (partner 1 µM)
Method in brief: (§1)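 For relative viability, nuclei counts in treated wells were divided by those in vehicle wells. Lung cancer cell lines had been pin-tool dosed in 1536-well plates the day after seeding and cultured for 5 days, then fixed and stained in one step (final 0.05% Triton X-100, 1% formaldehyde, 1 ug/ml Hoechst) and imaged at 4×. Doses were one drug alone or a fixed anchor-drug dose plus five library-drug doses (not always all listed) in √10 steps, and values are duplicate-plate medians.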

[2] = compound: O[C@H]1CC[C@H](Nc2ncc3nc(Nc4c(F)cc(F)cc4F)n([C@H]4CCOC4)c3n2)CC1 [Tanzisertib] + CCNC(=O)c1noc(-c2cc(C(C)C)c(O)cc2O)c1-c1ccc(CN2CCOCC2)cc1 [Luminespib] (partner 0.01 µM)
Method in brief: as §1

[3] = compound: O[C@H]1CC[C@H](Nc2ncc3nc(Nc4c(F)cc(F)cc4F)n([C@H]4CCOC4)c3n2)CC1 [Tanzisertib] + N=C(N)NC(=N)NCCc1ccccc1 [Phenformin] (partner 250 µM)
Method in brief: as §1

[4] = compound: C[C@@H](N)c1ccc(C(=O)Nc2ccnc3[nH]ccc23)cc1 + CCNC(=O)c1noc(-c2cc(C(C)C)c(O)cc2O)c1-c1ccc(CN2CCOCC2)cc1 [Luminespib] (partner 0.01 µM)
Method in brief: as §1

Cell Line	relative viability ([1]; first compound 0.08 µM)	relative viability ([1]; first compound 0.253 µM)	relative viability ([1]; first compound 0.8 µM)	relative viability ([1]; first compound 2.53 µM)	relative viability ([1]; first compound 8 µM)	relative viability ([2]; first compound 0.08 µM)	relative viability ([2]; first compound 0.253 µM)	relative viability ([2]; first compound 0.8 µM)	relative viability ([2]; first compound 2.53 µM)	relative viability ([2]; first compound 8 µM)	relative viability ([3]; first compound 0.08 µM)	relative viability ([3]; first compound 0.253 µM)	relative viability ([3]; first compound 0.8 µM)	relative viability ([3]; first compound 2.53 µM)	relative viability ([3]; first compound 8 µM)	relative viability ([4]; first compound 0.04 µM)	relative viability ([4]; first compound 0.1265 µM)	relative viability ([4]; first compound 0.4 µM)	relative viability ([4]; first compound 1.265 µM)	relative viability ([4]; first compound 4 µM)
NCI-H727	0.797	0.853	0.787	1.02	0.832	0.365	0.345	0.339	0.375	0.728	0.581	0.504	0.458	0.497	0.465	0.341	0.516	0.425	0.285	0.363
HARA	1.12	1.05	1.06	1.06	1.08	0.856	0.907	1.06	0.79	0.686	0.541	0.401	0.451	0.41	0.333	–	0.738	0.675	–	0.608
NCI-H2228	0.53	0.458	0.475	0.465	0.351	0.2	0.188	0.173	0.162	0.132	0.399	0.279	0.397	0.275	0.227	0.069	0.147	0.116	0.122	0.178
LCLC-97TM1	–	0.331	0.417	0.262	0.427	0.956	0.669	0.803	0.824	0.788	0.471	0.425	0.38	0.476	0.524	0.828	0.826	1.06	0.908	0.857
LC-2-ad	0.521	0.501	0.415	0.43	0.426	1.15	1.04	1.03	1.07	1.05	0.648	0.58	0.638	0.651	0.433	0.864	0.987	0.837	–	0.659
SK-LU-1	0.994	0.776	1.03	1.05	0.834	0.229	0.231	0.189	0.181	0.18	0.694	0.542	0.566	0.509	0.561	0.229	0.208	0.187	0.176	0.163
EKVX	0.895	0.867	0.967	0.898	0.853	0.974	0.882	0.801	0.833	0.825	0.227	0.244	0.253	0.227	0.205	0.943	0.987	1.08	0.879	0.942
HCC-827	0.903	0.964	0.931	0.892	0.559	0.668	0.594	0.642	0.588	0.259	0.409	0.417	0.398	0.382	0.242	0.786	0.686	0.698	0.848	0.608
NCI-H650	0.725	0.686	0.712	0.881	0.636	0.725	0.915	0.884	0.936	0.855	0.472	0.476	0.461	0.526	0.327	–	0.928	0.844	0.718	0.635
CAL-12T	0.677	0.715	0.684	0.547	0.686	0.383	0.409	0.376	0.731	0.247	0.517	0.566	0.625	0.628	0.556	0.297	0.421	0.322	0.432	0.22
NCI-H2342	–	–	–	–	–	0.688	0.828	0.975	0.759	0.888	0.618	0.643	0.57	0.557	0.532	0.858	0.797	0.719	0.802	0.808
SW 900	–	–	–	–	–	0.169	0.188	0.151	0.207	0.168	0.725	0.601	0.749	0.587	0.512	0.185	0.214	0.152	0.172	0.152
IA-LM	0.927	0.544	–	0.948	0.87	–	–	–	–	–	–	–	–	–	–	–	–	–	–	–
EPLC-272H	0.958	0.862	0.864	0.874	0.872	0.251	0.206	0.519	0.921	0.408	0.329	0.311	0.295	0.327	0.302	0.402	0.602	0.188	0.491	0.405
A-427	0.995	0.85	0.931	0.902	0.846	0.941	0.893	0.942	0.972	1.07	0.394	0.411	0.413	0.326	0.22	0.79	0.898	0.976	–	0.804
NCI-H647	1.12	0.975	1.09	1.14	1.01	0.152	0.12	0.196	0.158	0.336	0.531	0.703	0.481	0.487	0.555	0.133	0.228	0.139	0.14	0.0908
NCI-H1975	0.892	1	0.954	0.935	0.915	0.331	0.142	0.232	0.161	0.247	0.419	0.404	0.409	0.424	0.441	0.211	0.26	0.114	0.181	0.146
NCI-H358	0.748	0.716	0.511	0.506	0.485	0.302	0.282	0.5	0.29	0.318	0.361	0.318	0.322	0.271	0.212	0.231	0.213	0.348	0.237	0.364
PC-3 [JPC-3]	0.969	1.05	0.989	0.971	0.994	0.621	0.758	0.693	0.662	0.6	0.488	0.492	0.509	0.494	0.461	0.714	0.68	0.73	0.846	0.607
NCI-H1792	1.03	1.05	1.04	0.879	0.87	0.413	0.402	0.447	0.448	0.344	0.233	0.467	0.544	0.38	0.475	0.407	–	0.568	0.45	0.448

Cell Line	relative viability ([1]; first compound 0.08 µM)	relative viability ([1]; first compound 0.253 µM)	relative viability ([1]; first compound 0.8 µM)	relative viability ([1]; first compound 2.53 µM)	relative viability ([1]; first compound 8 µM)	relative viability ([2]; first compound 0.08 µM)	relative viability ([2]; first compound 0.253 µM)	relative viability ([2]; first compound 0.8 µM)	relative viability ([2]; first compound 2.53 µM)	relative viability ([2]; first compound 8 µM)	relative viability ([3]; first compound 0.08 µM)	relative viability ([3]; first compound 0.253 µM)	relative viability ([3]; first compound 0.8 µM)	relative viability ([3]; first compound 2.53 µM)	relative viability ([3]; first compound 8 µM)	relative viability ([4]; first compound 0.04 µM)	relative viability ([4]; first compound 0.1265 µM)	relative viability ([4]; first compound 0.4 µM)	relative viability ([4]; first compound 1.265 µM)	relative viability ([4]; first compound 4 µM)
NCI-H596	0.979	1.05	0.955	0.988	0.902	1.1	1.16	1.22	0.96	0.892	0.968	0.626	0.882	0.675	0.602	1.33	0.912	0.98	–	0.975
RERF-LC-KJ	0.865	0.804	0.859	0.856	0.798	1.29	1.17	1.29	1.16	1.22	0.45	0.39	0.439	0.4	0.384	1.22	1.3	1.26	1.2	1.25
NCI-H322M	0.779	0.928	0.832	0.882	0.709	0.834	0.751	0.87	0.932	0.951	0.788	0.728	0.832	0.81	0.721	1.08	1.1	1.03	–	0.742
COR-L 105	0.81	0.986	0.822	0.855	0.622	0.795	0.754	0.651	0.986	0.69	0.467	0.465	0.449	0.473	0.327	0.733	0.635	0.596	0.559	0.346
NCI-H1993	0.855	0.886	0.891	0.789	0.789	0.879	0.783	0.915	0.714	1	0.484	0.508	0.49	0.491	0.537	0.857	0.923	0.806	0.928	0.684
NCI-H1437	1.07	0.89	0.94	1.01	0.919	1.18	1.14	1.04	1.27	1.21	0.287	0.314	0.303	0.276	0.283	1.1	1.05	1.21	1.13	0.907
NCI-H838	0.892	0.849	0.875	0.88	0.885	0.293	0.34	0.277	0.248	0.209	0.666	0.608	0.628	0.587	0.541	0.355	0.315	0.32	0.282	0.222
NCI-H1666	0.902	0.934	1.09	1.03	1.09	1.01	0.924	1.05	1.19	1.18	0.595	0.602	0.56	0.607	0.59	1.02	1.03	1.13	1.4	1.16
EBC-1	0.206	0.168	0.195	0.178	0.185	–	–	–	–	–	–	–	–	–	–	–	–	–	–	–
HCC-366	0.651	0.523	0.671	0.492	0.515	–	–	–	–	–	0.671	0.599	0.651	0.681	0.646	–	–	–	–	–
NCI-H1299	0.983	0.972	0.968	0.984	1.05	–	–	–	–	–	–	–	–	–	–	–	–	–	–	–
A549	0.852	0.633	0.778	0.913	0.714	–	–	–	–	–	0.236	0.153	0.183	0.309	0.168	–	–	–	–	–
NCI-H1793	–	–	–	–	–	0.174	0.216	0.2	0.165	0.216	0.448	0.339	0.41	0.379	0.367	0.165	0.184	0.178	–	0.183
NCI-H1623	–	–	–	–	–	0.617	0.443	0.484	0.502	0.624	0.587	0.574	0.639	0.572	0.551	0.657	0.494	0.563	0.491	0.591
NCI-H1703	0.538	0.573	0.69	1.08	0.723	–	–	–	–	–	–	–	–	–	–	–	–	–	–	–
HCC-78	0.287	0.331	0.313	0.332	0.286	–	–	–	–	–	0.739	0.848	0.782	0.597	0.512	–	–	–	–	–
NCI-H1395	–	–	–	–	–	0.786	0.525	0.632	0.717	0.547	0.481	0.454	0.427	0.456	0.396	0.662	0.716	0.64	0.669	0.685
NCI-H522	–	–	–	–	–	1.38	1.27	0.966	1.16	1.17	0.783	0.57	0.667	0.677	0.572	1.34	1.06	1.59	1.02	0.885
Calu-6	0.79	0.785	0.782	0.756	0.712	–	–	–	–	–	–	–	–	–	–	–	–	–	–	–
